The source of these data is patent US6787552B2, “PPAR delta activators” (Nippon Chemiphar Co., Ltd., priority 2000, dated 2004).

Holding throughout (type): cell-based
One test concerns the target T1, PPARα (Homo sapiens, UniProt Q07869).
T1 construct: Receptor expression plasmid (GAL4-hPPARα, LBD GAL4-hPPARγ LBD, GAL4-hPPARδ LBD); expressed in transfected cells; host or cells: CV-1 cells
T1 sequence (Q07869 239-466 limits assumed): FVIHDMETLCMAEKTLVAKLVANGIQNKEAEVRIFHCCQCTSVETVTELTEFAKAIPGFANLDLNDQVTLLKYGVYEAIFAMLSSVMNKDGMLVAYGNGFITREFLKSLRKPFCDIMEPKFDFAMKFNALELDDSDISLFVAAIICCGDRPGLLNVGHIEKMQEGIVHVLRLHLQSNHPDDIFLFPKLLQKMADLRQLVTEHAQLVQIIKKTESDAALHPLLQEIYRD
Kind of test: PPARα transactivation activity (GAL4-hPPARα LBD / UASx4-TK-LUC reporter in CV-1 cells). The conditions noted are these: for Emax: CV-1, in the manner as described in Example 9, Table 26, read-out: PPARα (PPAR activating power); for PPARα transactivation activity: a relative value (control = 100%): CV-1 cells, Table 25. On the procedure: (§1) (1) Measurement of PPARα,γ,δ Transactivation Activity
(§2) PPARα,γ,δ transactivation activity of each compound [Examples 1-6 and known PPARδ agonist (L-16504: Berger, J., et al. (1999), J. Biol. Chem., 274:6718-6725)] was measured in the manner described below.
(§3) CV-1 was obtained from Tohoku University Aging Medical Laboratory, Medical Cell Collection Center. All test compounds were dissolved in dimethylsulfoxide (DMSO) to give a test sample of 0.1% concentration.
(§4) Receptor expression plasmid (GAL4-hPPARα, LBD GAL4-hPPARγ LBD, GAL4-hPPARδ LBD), Reporter plasmid (UASx4-TK-LUC), and β-galactosidase expression plasmid (βGAL) similar to Kliewer, S. A., et al., ((1992) Nature, 358:771-774) were employed.
(§5) CV-1 cells were seeded in 24 well culture plates at 2×10^5 cells per well, and cultured for 24 hours using 4%-fetal bovine serum(FBS)-added OPTI-MEM I Reduced Serum Medium (Life Technologies, 500 μL/well). Subsequently, the cells were washed with non serum-added OPTI-MEM. To the washed cells were added DNA-containing solution [the following components were contained in the one well solution (250 μl): 0.03 μg of GAL4-hPPARδ LBD, 0.25 μg of UASx4-TK-LUC, 0.35 μg of βGAL, and 2 μL of lipofection reagent, DMRIE-C (Life Technologies). These components were dissolved in OPTI-MEM and allowed to stand for 30 minutes at room temperature]. The cells were incubated for 5 hours at 37° C.
(§6) The cells were then incubated for 40 hours in 500 μL of fresh OPTI-MEM containing 4% FBS and the test compound (dissolved in 100% DMSO to reach a final concentration: 10^−4M or 10^−5M).
(§7) The culture medium was removed and the cells were washed with PBS twice. Cell lysates were produced using a solubilizing buffer (25 mM Tris-PO4 (pH 7.8), 15%v/v glycerol, 2% CHAPS, 1% Lecithin, 1% BSA, 4 mM EGTA (pH 8.0), 8 mM MgCl2, 1 mM DTT). A portion (20 μL) of the solution was transferred onto a 96-well plate. Subsequently, 100 μL of luciferase substrate solution (Piccagene: available from Nippon Gene Co., Ltd.) was added, and a luminous intensity per one sec. (luciferase activity) was measured by means of MLR-100 type Microluminoreader (available from Corona Electrics Co., Ltd.). Further, the activity caused by […] incorporation which was incorporated into the cells simultaneously with the incorporation of the luciferase gene was measured, for correcting variation of luciferase activity by the addition of the compound, utilizing the transfection efficiency of the incorporated gene. β-Galactosidase activity was measured by the following method: 50 μL of the solubilized sample was placed on another 96-well plate; 10 μL of ONPG (2-nitrophenyl-β-galactopyranoside) solution was added; incubation was carried out for 5 minutes at room temperature; 50 μL of a reaction stopping solution (1M sodium carbonate solution) was added; and the absorbance at 414 nm was measured.

A further test deals with T2, PPARγ (Homo sapiens, UniProt P37231).
T2 construct: Receptor expression plasmid (GAL4-hPPARα, LBD GAL4-hPPARγ LBD, GAL4-hPPARδ LBD); expressed in transfected cells; host or cells: CV-1 cells
T2 sequence (P37231 238-503 limits assumed): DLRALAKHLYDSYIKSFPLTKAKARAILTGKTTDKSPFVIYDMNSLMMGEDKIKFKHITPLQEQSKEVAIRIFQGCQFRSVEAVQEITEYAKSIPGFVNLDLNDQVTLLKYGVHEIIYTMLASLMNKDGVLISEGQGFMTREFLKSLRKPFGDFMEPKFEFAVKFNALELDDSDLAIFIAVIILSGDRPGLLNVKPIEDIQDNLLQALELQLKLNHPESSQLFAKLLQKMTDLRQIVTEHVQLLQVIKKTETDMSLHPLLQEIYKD
Briefly: PPARγ transactivation activity (GAL4-hPPARγ LBD / UASx4-TK-LUC reporter in CV-1 cells). The conditions noted are these: for Emax: CV-1, in the manner as described in Example 9, Table 26, read-out: PPARγ (PPAR activating power); for PPARγ transactivation activity: a relative value (control = 100%): compound at 10^−5 M, CV-1 cells, Table 25. How it is done: In the same manner, relative ligand activities to PPARδ and γ transactivation activitis are calculated (see the below-mentioned Example 9).
as §1, §2, §3, §4, §5, §6, §7

The target in another test is T3, PPARδ (Homo sapiens, UniProt Q03181).
T3 construct: A chimeric receptor expression plasmid (GAL4-hPPARδ LBD); expressed in transfected cells; host or cells: CV-1 cells
T3 sequence (Q03181 211-439 limits assumed): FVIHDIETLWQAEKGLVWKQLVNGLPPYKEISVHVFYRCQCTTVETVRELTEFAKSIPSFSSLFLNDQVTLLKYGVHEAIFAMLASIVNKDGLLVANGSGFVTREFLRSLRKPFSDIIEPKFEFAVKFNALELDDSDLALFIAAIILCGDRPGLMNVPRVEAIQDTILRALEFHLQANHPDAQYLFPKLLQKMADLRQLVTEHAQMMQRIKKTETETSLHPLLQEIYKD
Briefly: PPARδ transactivation activity (GAL4-hPPARδ LBD / UASx4-TK-LUC reporter in CV-1 cells). The conditions noted are these: for Emax: CV-1, 40 h, in the manner as described in Example 9, Table 26, read-out: PPARδ (PPAR activating power); for activity to PPARδ relative to activity to PPARα and γ (selectivity): GAL4-hPPAR LBD reporter, relative activities vs control reagents; for PPARδ transactivation activity: a relative value (control = 100%): compound at 10^−5 M, Table 25. On the procedure: A chimeric receptor expression plasmid (GAL4-hPPARδ LBD), a reporter plasmid (UASx4-TK-LUC) and β-galactosidase (β-GAL) are transfected into CV-1 cells by utilizing a lipofection reagent DMRIE-C (Life Technologies).
as §1
CV-1 was obtained from Tohoku University Aging Medical Laboratory, Medical Cell Collection Center.
as §5, §6, §7

Several values for one entry are separate records, joined by “and”; a condition that tells them apart may be missing. Equal entries are not always repeated.

Consider `CC(C)c1oc(-c2cccc(Cl)c2O)nc1CCC(=O)c1ccc(OC(C)(C)C(=O)O)cc1` [Example 7-12, 2-[4-[3-[2-(3-Chloro-2-hydroxyphenyl)-5-isopropyl-4-oxazolyl]propionyl]phenyloxy]-2-methylpropionic acid], for which the values for the Emax on PPARα, at PPARγ and at PPARδ were 8 ± 1%, 4% and 79 ± 2%, respectively. The “activity to PPARδ relative to activity to PPARα and γ (selectivity)” value at PPARδ (CV-1 cells) is “selectively higher”.
Regarding `CC(C)c1oc(-c2ccccc2Cl)nc1CCCc1ccc(OC(C)(C)C(=O)O)cc1` [Example 6, 2-[4-[3-[2-(2-Chlorophenyl)-5-isopropyl-4-oxazolyl]propyl]phenyloxy]-2-methylpropionic acid], the “PPARα transactivation activity: a relative value (control = 100%)” value at PPARα (compound at 10^−5 M) is 98 ± 6%. For the same compound, the “PPARγ transactivation activity: a relative value (control = 100%)” value on PPARγ stood at 93 ± 1%. Moreover, the “PPARδ transactivation activity: a relative value (control = 100%)” value at PPARδ (CV-1 cells) came to 109 ± 10%.
Consider `CC(C)c1oc(-c2cccc(Cl)c2Cl)nc1CCC(=O)c1ccc(OC(C)(C)C(=O)O)cc1` [Example 7-6, 2-[4-[3-[2-(2,3-Dichlorophenyl)-5-isopropyl-4-oxazolyl]propionyl]phenyloxy]-2-methylpropionic acid], for which the Emax on PPARα was 8%; at PPARγ it was 19%; on PPARδ, 96 ± 13%. For the same compound, at PPARδ (CV-1 cells, GAL4-hPPARδ LBD, 40 hours incubation, luciferase activity with 10^-4 M L-165041 set to 100%), the “PPARδ activating effect (transactivation activity) as compared with L-165041” value is recorded as “same or higher”.
Turning to `CCCc1oc(-c2ccc(Cl)cc2)nc1CCC(=O)c1ccc(OC(C)(C)C(=O)O)cc1` [Example 2, 2-[4-[3-[2-(4-Chlorophenyl)-5-propyl-4-oxazolyl]propionyl]phenyloxy]-2-methylpropionic acid], the “PPARα transactivation activity: a relative value (control = 100%)” value at PPARα (compound at 10^−5 M) worked out at 75 ± 4%. Also, the “PPARγ transactivation activity: a relative value (control = 100%)” value at PPARγ was determined as 51 ± 3%. Further, at PPARδ (CV-1 cells), the “PPARδ transactivation activity: a relative value (control = 100%)” value came to 93 ± 4%.
As for `CC(C)c1oc(-c2ccc(-c3ccccc3)cc2Cl)nc1CCC(=O)c1ccc(OC(C)(C)C(=O)O)cc1` [Example 7-14, 2-[4-[3-[2-(3-Chloro-4-biphenylyl)-5-isopropyl-4-oxazolyl]propionyl]phenyloxy]-2-methylpropionic acid], the Emax came out at 2% at PPARα, 18% at PPARγ and 53% on PPARδ.
In the case of `Cc1nc(-c2ccc(C(F)(F)F)cc2)sc1CCC(=O)c1ccc(OC(C)(C)C(=O)O)cc1` [Example 8-1, 2-[4-[3-[2-[(4-Trifluoromethyl)phenyl]-4-methyl-5-thiazolyl]propionyl]phenyloxy]-2-methylpropionic acid], the “PPARα transactivation activity: a relative value at 10^−5 M (control = 100%)” value at PPARα (compound at 10^−5 M, control WY-14643 (10^−4M), Table 27) was 129% and 126% and 120% and 166%.
As to `CC(C)c1oc(-c2ccccc2Cl)nc1CCC(=O)c1ccc(OC(C)(C)C(=O)O)cc1` [Example 1, 2-[4-[3-[2-(2-Chlorophenyl)-5-isopropyl-4-oxazolyl]propionyl]phenyloxy]-2-methylpropionic acid], at PPARα (compound at 10^−5 M), the “PPARα transactivation activity: a relative value (control = 100%)” value worked out at 9 ± 1%. Also, the “PPARγ transactivation activity: a relative value (control = 100%)” value at PPARγ is listed as 27 ± 3%. Further, on PPARδ (CV-1 cells), the “activity to PPARδ relative to activity to PPARα and γ (selectivity)” value is “selectively higher”; the “PPARδ transactivation activity: a relative value (control = 100%)” value is listed as 80 ± 10%.
For the compound `CC(C)c1oc(-c2ccccc2Cl)nc1CC=Cc1ccc(OC(C)(C)C(=O)O)cc1` [Example 5, 2-[4-[3-[2-(2-Chlorophenyl)-5-isopropyl-4-oxazolyl]-1-propenyl]phenyloxy]-2-methylpropionic acid], the “PPARα transactivation activity: a relative value (control = 100%)” value on PPARα (compound at 10^−5 M) is 52 ± 7%. Also, on PPARγ, the “PPARγ transactivation activity: a relative value (control = 100%)” value is 36 ± 3%. Further, on PPARδ (CV-1 cells), the “activity to PPARδ relative to activity to PPARα and γ (selectivity)” value is “selectively higher”; the “PPARδ transactivation activity: a relative value (control = 100%)” value is 114 ± 1%.
As to `CC(C)c1oc(-c2cc3ccccc3cc2O)nc1CCC(=O)c1ccc(OC(C)(C)C(=O)O)cc1` [Example 7-11, 2-[4-[3-[2-(3-Hydroxy-2-naphthyl)-5-isopropyl-4-oxazolyl]propionyl]phenyloxy]-2-methylpropionic acid], the Emax worked out at 29 ± 3% on PPARα, 18 ± 4% at PPARγ and 85 ± 1% at PPARδ.
In the case of `CC(C)c1oc(-c2ccccc2Cl)nc1CCC(=NO)c1ccc(OC(C)(C)C(=O)O)cc1` [Example 3, 2-[4-[3-[2-(2-Chlorophenyl)-5-isopropyl-4-oxazolyl](1-hydroxyimino)propyl]phenyloxy]-2-methyl-propionic acid], the “PPARα transactivation activity: a relative value (control = 100%)” value on PPARα (compound at 10^−5 M) is given as 10%. Moreover, the “PPARγ transactivation activity: a relative value (control = 100%)” value on PPARγ is 16%. The “PPARδ transactivation activity: a relative value (control = 100%)” value at PPARδ (CV-1 cells) is listed as 19%.
For `CC(C)c1oc(-c2ccc3ccccc3c2O)nc1CCC(=O)c1ccc(OC(C)(C)C(=O)O)cc1` [Example 7-9, 2-[4-[3-[2-(1-Hydroxy-2-naphthyl)-5-isopropyl-4-oxazolyl]propionyl]phenyloxy]-2-methylpropionic acid], the Emax on PPARα came to 8%; at PPARγ, 5 ± 1%; on PPARδ, 80 ± 5%.
Taken in the same sequence, the figures for `CCC(C)(Oc1ccc(C(=O)CCc2nc(-c3ccc(Cl)cc3Cl)oc2C(C)C)cc1)C(=O)O` (stereo not shown) [Example 7-5, 2-[4-[3-[2-(2,4-Dichlorophenyl)-5-isopropyl-4-oxazolyl]propionyl]phenyloxy]-2-methylbutyric acid] were 1%, 2% and 58 ± 14%.
Take `CC(C)c1oc(-c2ccc(Br)cc2Cl)nc1CCC(=O)c1ccc(OC(C)(C)C(=O)O)cc1` [Example 7-13, 2-[4-[3-[2-(4-Bromo-2-chlorophenyl)-5-isopropyl-4-oxazolyl]propionyl]phenyloxy]-2-methylpropionic acid]: the Emax came out at 1% on PPARα, 3% at PPARγ and 81% on PPARδ.
For `CCCc1c(OCCCOc2ccc(OCC(=O)O)cc2)ccc(C(C)=O)c1O` [Example L-165041, reference compound], the Emax at PPARα worked out at 2 ± 1%; on PPARγ, 1 ± 0.03%.
